In patent publication US20190071416A1, “COMPOUNDS FOR TREATMENT OF CANCER AND EPIGENETICS” (Agency For Science, Technology and Research, priority 2015, published 2019):

target: T1, SMYD3 (Homo sapiens, UniProt Q9H7B4); experiment: SMYD3 biochemical assay (MTase-Glo, MAP3K2 peptide substrate); conditions: Table 3; MTase assay, MAP3K2 peptide substrate; read-out: IC50
T1 sequence (Q9H7B4 1-428): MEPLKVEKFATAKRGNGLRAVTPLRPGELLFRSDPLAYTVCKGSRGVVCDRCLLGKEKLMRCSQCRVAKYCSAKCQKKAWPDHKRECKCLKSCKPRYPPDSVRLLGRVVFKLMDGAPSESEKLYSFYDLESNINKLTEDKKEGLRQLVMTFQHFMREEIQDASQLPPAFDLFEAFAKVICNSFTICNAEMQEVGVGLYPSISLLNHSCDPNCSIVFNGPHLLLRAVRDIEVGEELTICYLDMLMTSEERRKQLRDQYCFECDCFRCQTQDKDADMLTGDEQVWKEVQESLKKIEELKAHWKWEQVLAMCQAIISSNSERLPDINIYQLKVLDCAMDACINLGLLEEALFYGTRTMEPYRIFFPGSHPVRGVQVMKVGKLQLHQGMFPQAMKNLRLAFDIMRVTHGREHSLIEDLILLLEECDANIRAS
Outline: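 Methylation of MAP3K2 peptide (10 µM final) with SAM (1.0 µM final) by SMYD3, 30 min at room temperature. SAH formed was enzymatically converted to ATP and detected as luminescence with MTase-Glo reagents; IC50 by non-linear regression.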

| IC50 [nM] | SMILES |
| --- | --- |
| 21 | CCCOC(=O)N1CCN(C(=O)c2ccc3c(Cl)cc(-c4ccc5nn(C)cc5c4)nc3c2)CC1 [B127, Propyl 4-(4-chloro-2-(2-methyl-2H-indazol-5-yl)quinoline-7-carbonyl)piperazine-1-carboxylate] |
| 110 | CCCOC(=O)N1CCN(C(=O)c2ccc3c(Cl)cc(-c4ccc(NC(C)=O)nc4)nc3c2)CC1 [B149, Propyl 4-(2-(6-acetamidopyridin-3-yl)-4-chloroquinoline-7-carbonyl)piperazine-1-carboxylate] |
| 1400 | CCCOC(=O)N1CCN(C(=O)c2ccc3c(Cl)c(C)c(-c4cccc(OC)c4)nc3c2)CC1 [B029, Propyl 4-(4-chloro-2-(3-methoxyphenyl)-3-methylquinoline-7-carbonyl)piperazine-1-carboxylate] |
| 1000 | CCCOC(=O)N1CCN(C(=O)c2ccc3c(Cl)cc(-c4cccc(F)c4)nc3c2)CC1 [B049, Propyl 4-(4-chloro-2-(3-fluorophenyl)quinoline-7-carbonyl)piperazine-1-carboxylate] |
| 770 | CCCOC(=O)N1CCN(C(=O)c2ccc3c(Cl)cc(-c4ccc(C)cc4)nc3c2)C[C@H]1C [B052, Propyl (R)-4-(4-chloro-2-(p-tolyl)quinoline-7-carbonyl)-2-methylpiperazine-1-carboxylate] |
| 330 | CCCOC(=O)N1CCN(C(=O)c2ccc3c(Cl)cc(-c4ccc5ocnc5c4)nc3c2)CC1 [B213, Propyl 4-(2-(benzo[d]oxazol-5-yl)-4-chloroquinoline-7-carbonyl)piperazine-1-carboxylate] |
| 160 | CCCOC(=O)N1CCN(C(=O)c2ccc3c(Cl)c4c(nc3c2)CCC(CC(=O)OC)C4)[C@H](C)C1 (stereo partly drawn) [A085, Propyl (3R)-4-(9-chloro-7-(2-methoxy-2-oxoethyl)-5,6,7,8-tetrahydroacridine-3-carbonyl)-3-methylpiperazine-1-carboxylate] |
| 35 | CCCOC(=O)N1CCN(C(=O)c2ccc3c(Cl)cc(-c4ccc(OC)c(CNC)c4)nc3c2)CC1 [B120, Propyl 4-(4-chloro-2-(4-methoxy-3-((methylamino)methyl)phenyl)quinoline-7-carbonyl)piperazine-1-carboxylate] |
| 2500 | CCCOC(=O)N1CCN(C(=O)c2ccc3c(Cl)cc(-c4cnc5[nH]nc(C)c5c4)nc3c2)CC1 [B173, Propyl 4-(4-chloro-2-(3-methyl-1H-pyrazolo[3,4-b]pyridin-5-yl)quinoline-7-carbonyl)piperazine-1-carboxylate] |
| 4900 | CCCOC(=O)N1CCN(C(=O)c2ccc3c(Cl)cc(-c4cn[nH]c4C(F)(F)F)nc3c2)CC1 [B250, Propyl 4-(4-chloro-2-(5-(trifluoromethyl)-1H-pyrazol-4-yl)quinoline-7-carbonyl)piperazine-1-carboxylate] |
| 450 | CC(C)(C)n1cc(C(=O)N2CCN(C(=O)c3ccc4c(Cl)cc(-c5ccccc5)nc4c3)CC2)nn1 [D008, (1-(Tert-butyl)-1H-1,2,3-triazol-4-yl)(4-(4-chloro-2-phenylquinoline-7-carbonyl)piperazin-1-yl)methanone] |
| 210 | CCCOC(=O)N1CCN(C(=O)c2ccc3c(Cl)cc(-c4cccs4)nc3c2)C[C@H]1C [B085, Propyl (R)-4-(4-chloro-2-(thiophen-2-yl)quinoline-7-carbonyl)-2-methylpiperazine-1-carboxylate] |
| 120 | CCCOC(=O)N1CCN(C(=O)c2ccc3c(Cl)cc(-c4cc(C)n(C)c4C)nc3c2)CC1 [B214, Propyl 4-(4-chloro-2-(1,2,5-trimethyl-1H-pyrrol-3-yl)quinoline-7-carbonyl)piperazine-1-carboxylate] |
| 20 | CCCOC(=O)N1CCN(C(=O)c2ccc3c(Cl)cc(-c4cnn(C5CCCC5)c4)nc3c2)C[C@@H]1C [B279, Propyl (S)-4-(4-chloro-2-(1-cyclopentyl-1H-pyrazol-4-yl)quinoline-7-carbonyl)-2-methylpiperazine-1-carboxylate] |
| 42 | CCCOC(=O)N1CCN(C(=O)c2ccc3c(Cl)cc(-c4ccc(CNC)cc4)nc3c2)C[C@H]1C [B119, Propyl (R)-4-(4-chloro-2-(4-((methylamino)methyl)phenyl)quinoline-7-carbonyl)-2-methylpiperazine-1-carboxylate] |
| 440 | CCCOC(=O)N1CCN(C(=O)c2ccc3c(Cl)cc(-c4ccc(N5CCCC5)cc4)nc3c2)C[C@H]1C [B075, Propyl (R)-4-(4-chloro-2-(4-(pyrrolidin-1-yl)phenyl)quinoline-7-carbonyl)-2-methylpiperazine-1-carboxylate] |
| 1000 | C=CCOC(=O)N1CCN(C(=O)c2ccc3c(Cl)c4c(nc3c2)CCCC4)CC1 [A002, Allyl 4-(9-chloro-5,6,7,8-tetrahydroacridine-3-carbonyl)piperazine-a1-carboxylate] |

| IC50 [nM] | SMILES |
| --- | --- |
| 800 | CCCOC(=O)N1CCN(C(=O)c2ccc3c(Cl)cc(-c4ccc(COCCOC)cc4)nc3c2)CC1 [B224, Propyl 4-(4-chloro-2-(4-((2-methoxyethoxy)methyl)phenyl)quinoline-7-carbonyl)piperazine-1-carboxylate] |
| 110 | CCCOC(=O)N1CCN(C(=O)c2ccc3c(Cl)c4c(nc3c2)C(C)CCC4)C[C@H]1C (stereo partly drawn) [A127, Propyl (2R)-4-(9-chloro-5-methyl-5,6,7,8-tetrahydroacridine-3-carbonyl)-2-methylpiperazine-1-carboxylate] |
| 110 | CCCOC(=O)N1CCN(C(=O)c2ccc3c(Cl)cc(-c4cnn(C)c4)nc3c2)C[C@H]1C [B215, Propyl (R)-4-(4-chloro-2-(1-methyl-1H-pyrazol-4-yl)quinoline-7-carbonyl)-2-methylpiperazine-1-carboxylate] |
| 620 | CCCOC(=O)N1CCN(C(=O)c2ccc3c(Cl)c4c(nc3c2)CC(C(=O)OC)CC4)CC1 (stereo not drawn) [A044, Methyl 9-chloro-6-(4-(propoxycarbonyl)piperazine-1-carbonyl)-1,2,3,4-tetrahydroacridine-3-carboxylate] |
| 180 | CCCOC(=O)N1CCN(C(=O)c2ccc3c(Cl)cc(-c4ccc5c(cnn5C)c4)nc3c2)CC1C (stereo not drawn) [B155, Propyl 4-(4-chloro-2-(1-methyl-1H-indazol-5-yl)quinoline-7-carbonyl)-2-methylpiperazine-1-carboxylate] |
| 250 | CCCOC(=O)N1CCN(C(=O)c2ccc3c(Cl)cc(-c4ccc(F)c(N)c4)nc3c2)CC1 [B180, Propyl 4-(2-(3-amino-4-fluorophenyl)-4-chloroquinoline-7-carbonyl)piperazine-1-carboxylate] |
| 16 | CCCOC(=O)N1CCN(C(=O)c2ccc3c(Cl)cc(-c4cccc(O)c4)nc3c2)CC1 [B143, Propyl 4-(4-chloro-2-(3-hydroxyphenyl)quinoline-7-carbonyl)piperazine-1-carboxylate] |
| 110 | CCCOC(=O)N1CCN(C(=O)c2ccc3c(Cl)c4c(nc3c2)CC(CCN(C)C)CC4)[C@@H](C)C1 (stereo partly drawn) [A126, Propyl (3S)-4-(9-chloro-6-(2-(dimethylamino)ethyl)-5,6,7,8-tetrahydroacridine-3-carbonyl)-3-methylpiperazine-1-carboxylate] |
| 4200 | CCCOC(=O)N1CCN(C(=O)c2ccc3c(Cl)c4c(nc3c2)CCCC4)C(CC(=O)N(C)C)C1 (stereo not drawn) [A071, Propyl 4-(9-chloro-5,6,7,8-tetrahydroacridine-3-carbonyl)-3-(2-(dimethylamino)-2-oxoethyl)piperazine-1-carboxylate] |
| 190 | CCCOC(=O)N1CCN(C(=O)c2ccc3c(Cl)c4c(nc3c2)CC(CC#N)CC4)CC1 (stereo not drawn) [A065, Propyl 4-(9-chloro-6-(cyanomethyl)-5,6,7,8-tetrahydroacridine-3-carbonyl)piperazine-1-carboxylate] |
| 250 | CCCOC(=O)N1CCN(C(=O)c2ccc3c(Cl)c(C)c(-c4ccc(C(N)=O)cc4)nc3c2)CC1 [B092, Propyl 4-(2-(4-carbamoylphenyl)-4-chloro-3-methylquinoline-7-carbonyl)piperazine-1-carboxylate] |
| 630 | CCCOC(=O)N1CCN(C(=O)c2ccc3c(Cl)cc(-c4ccn(S(=O)(=O)N(C)C)c4)nc3c2)CC1 [B231, Propyl 4-(4-chloro-2-(1-(N,N-dimethylsulfamoyl)-1H-pyrrol-3-yl)quinoline-7-carbonyl)piperazine-1-carboxylate] |
| 60 | CCCOC(=O)N1CCN(C(=O)c2ccc3c(Cl)cc(-c4ccc5ncn(C)c5c4)nc3c2)CC1 [B207, Propyl 4-(4-chloro-2-(1-methyl-1H-benzo[d]imidazol-6-yl)quinoline-7-carbonyl)piperazine-1-carboxylate] |
| 5200 | CCCOC(=O)N1CCN(C(=O)c2ccc3c(Cl)c4c(nc3c2)CCCC4C)CC1 (stereo not drawn) [A023, Propyl 4-(9-chloro-8-methyl-5,6,7,8-tetrahydroacridine-3-carbonyl)piperazine-1-carboxylate] |
| 8200 | CCCOC(=O)N1CCN(C(=O)c2ccc3c(Cl)c4c(nc3c2)CCCC4)CC1(C)C [A035, Propyl 4-(9-chloro-5,6,7,8-tetrahydroacridine-3-carbonyl)-2,2-dimethylpiperazine-1-carboxylate] |
| 190 | CCCOC(=O)N1CCN(C(=O)c2ccc3c(Cl)c4c(nc3c2)CC(c2ccncc2)CC4)CC1 (stereo not drawn) [A058, Propyl 4-(9-chloro-6-(pyridin-4-yl)-5,6,7,8-tetrahydroacridine-3-carbonyl)piperazine-1-carboxylate] |
